The values below come from ChEMBL document CHEMBL5537130, “Structure-based design of potent FABP4 inhibitors with high selectivity against FABP3” (Eur J Med Chem, 2024).

The nature of data set [1]: in vitro. Particulars: mouse, liver microsomes. In general terms: Liver microsomes are a subcellular fraction often used to study metabolism.
Description: Metabolic stability in mouse liver microsomes assessed as half life at 1 uM preincubated with compound for 10 mins followed by NADPH addition and measured upto 60 mins by LC-MS/MS analysis
Data set [2] is described as follows: in vitro. Particulars: human, liver microsomes.
Description: Metabolic stability in human liver microsomes assessed as metabolic bioavailability at 1 uM preincubated with compound for 10 mins followed by NADPH addition and measured upto 60 mins by LC-MS/MS analysis
A short description of data set [3]: in vitro. Particulars: human, liver microsomes. This is another data set of the same source.
Description: Metabolic stability in human liver microsomes assessed as half life at 1 uM preincubated with compound for 10 mins followed by NADPH addition and measured upto 60 mins by LC-MS/MS analysis
A short description of data set [4]: in vitro. Particulars: mouse, liver microsomes. The source holds these as a separate data set.
Description: Metabolic stability in mouse liver microsomes assessed as metabolic bioavailability at 1 uM preincubated with compound for 10 mins followed by NADPH addition and measured upto 60 mins by LC-MS/MS analysis
Data set [5] deals with Fatty acid-binding protein, heart (Homo sapiens, UniProt P05413).
Fatty acid-binding protein, heart, sequence (P05413 whole entry): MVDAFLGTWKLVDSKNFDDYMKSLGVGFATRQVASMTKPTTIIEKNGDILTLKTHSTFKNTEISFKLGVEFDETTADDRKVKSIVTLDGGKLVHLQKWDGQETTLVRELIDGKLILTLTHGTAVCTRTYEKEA
Description: Displacement of 1,8-ANS from N-terminal 6His-tagged full length FABP3 (unknown origin) expressed in Escherichia coli ER2566 assessed as inhibition constant preincubated with compound for 10 mins followed by 1,8-ANS addition and measured after 3 mins by fluorescence based analysis
For the next data set, the system named is FABP3 versus FABP4. Nature of the data set: in vitro. Particulars: probe 1,8-ANS.
The target in data set [6] is Fatty acid-binding protein, adipocyte (Homo sapiens, UniProt P15090).
Fatty acid-binding protein, adipocyte, sequence (P15090 whole entry): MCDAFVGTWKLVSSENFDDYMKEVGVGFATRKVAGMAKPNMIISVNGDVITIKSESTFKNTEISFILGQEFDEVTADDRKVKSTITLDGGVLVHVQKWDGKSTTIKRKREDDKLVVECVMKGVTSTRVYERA
Description: Displacement of 1,8-ANS from N-terminal 6His-tagged full length FABP4 (unknown origin) expressed in Escherichia coli ER2566 assessed as inhibition constant preincubated with compound for 10 mins followed by 1,8-ANS addition and measured after 3 mins by fluorescence based analysis

Where only a bound is given, the exact number is not on record here.

Description for FABP3 versus FABP4: Selectivity index, ratio of Ki for displacement of 1,8-ANS from N-terminal 6His-tagged full length FABP3 (unknown origin) expressed in Escherichia coli ER2566 to Ki for displacement of 1,8-ANS from N-terminal 6His-tagged full length FABP4 (unknown origin) expressed in Escherichia coli ER2566

Take `O=C(O)c1ccccc1Nc1cccc(Cl)c1-c1ccccc1`: the values for the half-life at 1 h, 1 µM in “in vitro [1]” and in “in vitro [3]” were 31.4 min and 33.5 min, respectively. Moreover, the Fh at 1 h, 1 µM in the data set “in vitro [2]” was determined as 24%; in the data set “in vitro [4]”, 39.9%.
The molecule `Cc1cccc(Nc2cccc(Cl)c2-c2ccccc2)c1C(=O)O` had an inhibition constant (Ki) in data set [5] of 15 µM. In other words, the double-digit micromolar range.
The same measure, in the same setting: then `O=C(O)c1c(Cl)cccc1Nc1cccc(Cl)c1-c1ccccc1`, with 5.18 µM.
With `COc1ccc(Nc2cccc(Cl)c2-c2ccccc2)c(C(=O)O)c1`, the Ki was found to be 2.19 µM in data set [5] and 0.359 µM in data set [6]. The selectivity ratio in the data set with FABP3 versus FABP4 worked out at 6.
In turn, `Cc1ccc(Nc2cccc(Cl)c2-c2ccccc2)c(C(=O)O)c1` yielded an inhibitory constant (Ki) in data set [5] of 7.46 µM.
In data set [5], `O=C(O)c1cc(Cl)ccc1Nc1cccc(Cl)c1-c1ccccc1` returned a Ki of 1.29 µM.
The same measure, in the same setting: the value for `COc1cccc(Nc2cccc(Cl)c2-c2ccccc2)c1C(=O)O` was more than 5 µM; that for `Cc1c(F)ccc(Nc2cccc(Cl)c2-c2ccc3c(c2)CCO3)c1C(=O)O` was 7.51 µM; that for `Cc1cccc(Nc2cccc(Cl)c2-c2ccc3c(c2)CCO3)c1C(=O)O` was 15.4 µM.
In turn, `O=C(O)c1cc(F)ccc1Nc1cccc(Cl)c1-c1ccccc1` showed a Ki in data set [5] of 0.37 µM.
Same read-out and setting: the value for `Cc1c(F)ccc(Nc2cccc(Cl)c2-c2ccccc2)c1C(=O)O` was 4 µM.

In general, half-life refers to how long it takes for the measured level to halve. Broadly, the Ki is the equilibrium dissociation constant of an inhibitor or competing ligand from its target.
